Experimental findings from ChEMBL document CHEMBL5291721, “A preclinical secondary pharmacology resource illuminates target-adverse drug reaction associations of marketed drugs” (Nat Commun, 2023) are described below.

The target of assay [1] is Gamma-aminobutyric acid receptor subunit alpha-1 (Rattus norvegicus, UniProt P62813). In kind it is functional.
The target in assay [2] is T1, Alpha-2A adrenergic receptor (Homo sapiens, UniProt P08913).
T1 sequence (P08913 whole entry): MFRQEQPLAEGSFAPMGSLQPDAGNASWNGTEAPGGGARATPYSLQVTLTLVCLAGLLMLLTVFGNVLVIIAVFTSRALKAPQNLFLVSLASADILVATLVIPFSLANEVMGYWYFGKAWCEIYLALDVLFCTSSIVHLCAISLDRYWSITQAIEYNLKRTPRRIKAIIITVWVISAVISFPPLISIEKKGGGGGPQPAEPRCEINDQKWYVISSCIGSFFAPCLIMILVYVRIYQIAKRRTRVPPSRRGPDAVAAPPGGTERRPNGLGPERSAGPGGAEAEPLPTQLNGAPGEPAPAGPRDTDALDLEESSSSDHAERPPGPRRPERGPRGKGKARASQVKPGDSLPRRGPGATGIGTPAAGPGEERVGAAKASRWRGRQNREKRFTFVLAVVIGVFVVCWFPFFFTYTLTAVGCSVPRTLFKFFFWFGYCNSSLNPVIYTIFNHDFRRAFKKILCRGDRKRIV
The format is functional, cell-based.

The target of assay [3] is T2, 5-hydroxytryptamine receptor 2C (Homo sapiens, UniProt P28335).
T2 sequence (P28335 whole entry): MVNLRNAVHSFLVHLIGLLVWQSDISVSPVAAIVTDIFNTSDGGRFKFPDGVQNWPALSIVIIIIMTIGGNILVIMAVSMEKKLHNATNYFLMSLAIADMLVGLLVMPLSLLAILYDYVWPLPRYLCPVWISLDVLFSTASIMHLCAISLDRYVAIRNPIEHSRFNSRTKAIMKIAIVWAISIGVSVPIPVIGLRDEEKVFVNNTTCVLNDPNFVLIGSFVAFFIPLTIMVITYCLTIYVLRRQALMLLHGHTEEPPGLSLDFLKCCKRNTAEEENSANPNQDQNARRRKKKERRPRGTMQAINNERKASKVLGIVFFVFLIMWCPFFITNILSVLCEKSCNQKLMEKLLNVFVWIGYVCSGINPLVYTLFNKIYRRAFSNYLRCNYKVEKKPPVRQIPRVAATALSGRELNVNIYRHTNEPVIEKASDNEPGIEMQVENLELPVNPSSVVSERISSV

The target of assay [4] is T3, Equilibrative nucleoside transporter 1 (Homo sapiens, UniProt Q99808).
T3 sequence (Q99808 whole entry): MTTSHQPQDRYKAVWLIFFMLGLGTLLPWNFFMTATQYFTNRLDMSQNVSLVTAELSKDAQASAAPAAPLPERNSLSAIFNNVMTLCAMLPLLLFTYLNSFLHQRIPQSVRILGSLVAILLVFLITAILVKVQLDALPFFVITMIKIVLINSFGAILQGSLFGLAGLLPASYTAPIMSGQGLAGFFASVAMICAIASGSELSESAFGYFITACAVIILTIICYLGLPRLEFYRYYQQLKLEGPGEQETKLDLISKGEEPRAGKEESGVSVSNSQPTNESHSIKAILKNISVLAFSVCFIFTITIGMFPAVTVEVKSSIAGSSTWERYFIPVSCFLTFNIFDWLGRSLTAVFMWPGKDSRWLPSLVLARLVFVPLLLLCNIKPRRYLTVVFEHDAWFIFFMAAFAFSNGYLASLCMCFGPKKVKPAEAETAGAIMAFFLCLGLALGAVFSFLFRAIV

For assay [5], the target named is Beta-1 adrenergic receptor (Homo sapiens, UniProt P08588). In kind it is functional.
Sequence of Beta-1 adrenergic receptor (P08588 whole entry): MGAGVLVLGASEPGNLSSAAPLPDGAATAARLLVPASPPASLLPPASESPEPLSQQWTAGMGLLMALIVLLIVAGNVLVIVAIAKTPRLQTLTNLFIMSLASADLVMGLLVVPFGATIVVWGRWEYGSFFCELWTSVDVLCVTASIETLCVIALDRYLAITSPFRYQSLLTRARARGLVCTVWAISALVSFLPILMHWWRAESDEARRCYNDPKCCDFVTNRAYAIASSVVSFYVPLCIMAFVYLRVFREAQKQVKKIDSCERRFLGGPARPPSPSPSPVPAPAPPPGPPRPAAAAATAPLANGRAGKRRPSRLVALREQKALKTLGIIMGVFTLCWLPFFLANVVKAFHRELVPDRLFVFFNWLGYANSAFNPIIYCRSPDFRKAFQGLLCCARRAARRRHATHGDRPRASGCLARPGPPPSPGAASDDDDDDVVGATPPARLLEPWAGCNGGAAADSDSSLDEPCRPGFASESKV
Assay [6] deals with T4, 5-hydroxytryptamine receptor 1A (Homo sapiens, UniProt P08908).
T4 sequence (P08908 whole entry): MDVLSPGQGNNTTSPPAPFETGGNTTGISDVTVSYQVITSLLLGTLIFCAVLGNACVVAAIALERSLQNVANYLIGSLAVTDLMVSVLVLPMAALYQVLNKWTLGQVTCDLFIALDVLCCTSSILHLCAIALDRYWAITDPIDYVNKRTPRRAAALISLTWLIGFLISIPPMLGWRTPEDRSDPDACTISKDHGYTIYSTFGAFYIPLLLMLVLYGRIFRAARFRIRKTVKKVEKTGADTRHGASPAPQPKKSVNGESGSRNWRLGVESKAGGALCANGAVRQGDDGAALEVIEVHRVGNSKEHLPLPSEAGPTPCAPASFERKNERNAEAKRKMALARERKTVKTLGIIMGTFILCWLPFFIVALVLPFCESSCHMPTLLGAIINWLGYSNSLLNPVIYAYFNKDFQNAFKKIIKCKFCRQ
The format is functional, cell-based.

In assay [7] the target is T5, Alpha-2B adrenergic receptor (Homo sapiens, UniProt P18089).
T5 sequence (P18089 whole entry): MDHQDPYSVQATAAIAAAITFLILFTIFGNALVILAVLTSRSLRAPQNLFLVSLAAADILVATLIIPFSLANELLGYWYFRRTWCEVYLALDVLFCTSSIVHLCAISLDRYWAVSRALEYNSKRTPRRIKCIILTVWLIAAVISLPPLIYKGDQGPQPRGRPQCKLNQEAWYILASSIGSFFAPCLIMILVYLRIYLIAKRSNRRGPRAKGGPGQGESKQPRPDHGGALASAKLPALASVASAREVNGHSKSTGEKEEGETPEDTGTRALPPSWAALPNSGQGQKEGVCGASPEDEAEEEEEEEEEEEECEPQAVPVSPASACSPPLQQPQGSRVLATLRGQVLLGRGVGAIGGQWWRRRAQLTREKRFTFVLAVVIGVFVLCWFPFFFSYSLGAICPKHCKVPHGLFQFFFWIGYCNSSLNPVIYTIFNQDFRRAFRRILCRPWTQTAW

The target of assay [8] is T6, Adenosine receptor A3 (Homo sapiens, UniProt P0DMS8).
T6 sequence (P0DMS8 whole entry): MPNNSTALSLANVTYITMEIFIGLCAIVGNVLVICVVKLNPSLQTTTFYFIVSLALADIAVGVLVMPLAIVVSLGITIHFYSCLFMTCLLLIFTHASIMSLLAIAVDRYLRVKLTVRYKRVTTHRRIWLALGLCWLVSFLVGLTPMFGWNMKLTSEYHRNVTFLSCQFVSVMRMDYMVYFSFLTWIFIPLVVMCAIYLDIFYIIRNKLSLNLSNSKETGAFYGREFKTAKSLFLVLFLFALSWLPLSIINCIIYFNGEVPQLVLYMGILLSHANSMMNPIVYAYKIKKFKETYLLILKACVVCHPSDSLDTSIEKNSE

Assay [9] deals with D(1A) dopamine receptor (Homo sapiens, UniProt P21728).
Sequence of D(1A) dopamine receptor (P21728 whole entry): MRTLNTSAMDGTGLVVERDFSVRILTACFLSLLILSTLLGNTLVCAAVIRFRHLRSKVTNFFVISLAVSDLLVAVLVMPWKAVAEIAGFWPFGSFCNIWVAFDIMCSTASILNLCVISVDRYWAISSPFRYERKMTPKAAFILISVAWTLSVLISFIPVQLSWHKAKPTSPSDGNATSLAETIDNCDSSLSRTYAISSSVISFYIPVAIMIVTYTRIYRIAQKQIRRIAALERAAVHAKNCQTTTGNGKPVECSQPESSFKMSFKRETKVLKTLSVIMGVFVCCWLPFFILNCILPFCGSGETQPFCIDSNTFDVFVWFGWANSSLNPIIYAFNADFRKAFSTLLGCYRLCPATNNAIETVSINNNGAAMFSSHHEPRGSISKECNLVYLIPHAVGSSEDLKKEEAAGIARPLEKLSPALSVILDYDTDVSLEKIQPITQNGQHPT
Assay [10] deals with D(3) dopamine receptor (Homo sapiens, UniProt P35462).
Sequence of D(3) dopamine receptor (P35462 whole entry): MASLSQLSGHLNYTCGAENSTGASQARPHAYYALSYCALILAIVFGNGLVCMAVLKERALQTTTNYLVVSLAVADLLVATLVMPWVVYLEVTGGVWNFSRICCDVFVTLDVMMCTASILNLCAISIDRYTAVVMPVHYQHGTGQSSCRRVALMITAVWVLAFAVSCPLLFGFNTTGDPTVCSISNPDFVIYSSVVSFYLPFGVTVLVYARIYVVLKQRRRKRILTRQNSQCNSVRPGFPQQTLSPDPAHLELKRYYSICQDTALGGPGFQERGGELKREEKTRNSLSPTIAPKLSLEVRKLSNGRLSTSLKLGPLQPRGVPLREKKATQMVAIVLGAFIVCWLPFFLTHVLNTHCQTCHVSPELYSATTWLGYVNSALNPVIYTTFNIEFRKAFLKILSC
Also: assay procedure not described here.

Sequence of Gamma-aminobutyric acid receptor subunit alpha-1 (P62813 whole entry): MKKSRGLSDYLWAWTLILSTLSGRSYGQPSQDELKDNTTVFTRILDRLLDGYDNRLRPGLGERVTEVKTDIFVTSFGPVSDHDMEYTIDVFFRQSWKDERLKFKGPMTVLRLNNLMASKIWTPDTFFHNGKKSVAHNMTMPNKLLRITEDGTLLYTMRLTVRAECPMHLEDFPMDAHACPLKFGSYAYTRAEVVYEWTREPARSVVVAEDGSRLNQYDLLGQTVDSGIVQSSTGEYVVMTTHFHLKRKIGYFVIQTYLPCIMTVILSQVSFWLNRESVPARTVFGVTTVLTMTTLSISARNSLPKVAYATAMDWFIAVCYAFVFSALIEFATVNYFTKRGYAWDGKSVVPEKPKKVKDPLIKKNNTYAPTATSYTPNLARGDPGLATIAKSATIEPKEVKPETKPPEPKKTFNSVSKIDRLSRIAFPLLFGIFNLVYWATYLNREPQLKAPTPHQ

In general, AC50 refers to the concentration giving half of the maximal activity seen. Lower therefore signals activity at low concentration. For the compound `O=C1c2cccc3c2[C@H](CCC3)CN1[C@@H]1CN2CCC1CC2` [PALONOSETRON], the AC50 is more than 30 µM in [1]; 25 µM in assay [2]; more than 30 µM in [3]; more than 30 µM in assay [4]; more than 30 µM in [5]; more than 30 µM in [6]. The AC50 in assay [7] and in assay [8] was more than 30 µM in each case.
On to `Cc1cccc(C)c1NC(=O)CC12CCCN1CCC2` [PILSICAINIDE], for which the AC50 in assay [1], in assay [2], in [3], in assay [4], in assay [5] and in [6] was more than 30 µM each time. Besides, the concentration at half-maximal activity (AC50) in assay [7] and in assay [8] was more than 30 µM throughout.
Take `C[N+]1(C)CCC(=C(c2ccccc2)c2ccccc2)CC1`: the AC50 was more than 10 µM in [1]; more than 10 µM in assay [2]; more than 30 µM in [3]; more than 10 µM in assay [4]; more than 10 µM in assay [5]; more than 10 µM in assay [6]. Also, the AC50 was more than 10 µM in [7] and more than 30 µM in assay [8].
Consider `CCOC(=O)c1c(CSc2ccccc2)n(C)c2cc(Br)c(O)c(CN(C)C)c12` [UMIFENOVIR], for which the AC50 in [1] is more than 30 µM; in [2], more than 30 µM; in [3] it was 2.6 µM; in assay [4] it was more than 30 µM; in assay [5] it was more than 30 µM; in assay [6], more than 30 µM. Besides, the AC50 is 26 µM in assay [7] and more than 30 µM in [8].
Turning to `C[C@]12C=CC(=O)C=C1CC[C@@H]1[C@@H]2CC[C@]2(C)OC(=O)CC[C@@H]12` [TESTOLACTONE], the half-maximal activity concentration (AC50) in [1] is more than 10 µM; in [2] it was more than 30 µM; in [3], more than 30 µM; in assay [4], more than 10 µM; in assay [5], more than 10 µM; in [6] it was more than 30 µM. Further, the AC50 in assay [7] and in [8] was more than 10 µM each time.
With `COC(=O)C1=C(C)NC(C)=C(C(=O)OCCN2CCN(C(c3ccccc3)c3ccccc3)CC2)C1c1cccc([N+](=O)[O-])c1` (stereo not drawn) [MANIDIPINE 6300], the AC50 in [1], in assay [2], in [3], in assay [4], in [5] and in assay [6] was more than 30 µM throughout. Moreover, the AC50 is more than 30 µM in assay [7] and 3.8 µM in [8].
Take `COc1ccc([C@@H]2CC(=O)c3c(O)cc(O)cc3O2)cc1O` [HESPERETIN]: the AC50 is more than 10 µM in [1]; more than 10 µM in [2]; more than 30 µM in assay [3]; more than 10 µM in assay [4]; more than 10 µM in assay [5]; more than 10 µM in assay [6]. For the same compound, the AC50 in assay [7] and in assay [8] was more than 10 µM in each case.
With `CCCN1CC(NS(=O)(=O)N(CC)CC)CC2Cc3c(O)cccc3CC21` (stereo not drawn) [QUINAGOLIDE], the concentration at half-maximal activity (AC50) in [1] is more than 30 µM; in [2] it was more than 30 µM; in assay [3], more than 30 µM; in [5] it was more than 30 µM; in assay [6], 1.1 µM; in assay [7], 11 µM. Also, the half-maximal activity concentration (AC50) in [8] was more than 30 µM.
With `C=C1c2cccc(O)c2C(=O)C2=C(O)[C@]3(O)C(=O)C(C(N)=O)=C(O)[C@@H](N(C)C)[C@@H]3[C@@H](O)[C@H]12` [METHACYCLINE], the AC50 in assay [1] is more than 10 µM; in [2], more than 10 µM; in assay [3], more than 30 µM; in [4] it was more than 10 µM; in assay [5], more than 10 µM; in assay [6] it was more than 10 µM. Besides, the AC50 in assay [7] is more than 10 µM; in assay [8] it was more than 30 µM.
For `O=C(O)COCCN1CCN(C(c2ccccc2)c2ccc(Cl)cc2)CC1` (stereo not drawn) [CETIRIZINE], the AC50 in [2] was more than 10 µM; in assay [3], more than 30 µM; in assay [4], more than 30 µM; in assay [5] it was more than 10 µM; in [6] it was more than 10 µM; in [7] it was more than 10 µM. Further, the AC50 in assay [8] was more than 30 µM.
In the case of `O=C1OC(OC(=O)c2cccnc2Nc2cccc(C(F)(F)F)c2)c2ccccc21` (stereo not drawn) [TALNIFLUMATE], the AC50 in [1], in assay [3], in assay [4], in assay [5], in assay [6] and in assay [7] was more than 30 µM each time. The compound also came in with an AC50 in assay [8] of more than 30 µM.
In the case of `CN(C)C/C=C/C(=O)Nc1cc2c(Nc3ccc(F)c(Cl)c3)ncnc2cc1O[C@H]1CCOC1` [AFATINIB], the AC50 in assay [1] was more than 30 µM; in assay [3], more than 30 µM; in assay [4] it was more than 30 µM; in assay [5] it was more than 30 µM; in assay [6], more than 30 µM; in assay [7], 0.87 µM. The same compound showed an AC50 in assay [8] of more than 30 µM.
In the case of `COC(=O)[C@H]1[C@H]2C[C@@H]3c4[nH]c5cc(OC)ccc5c4CCN3C[C@H]2C[C@@H](OC(=O)c2cc(OC)c(OC)c(OC)c2)[C@@H]1OC` [RESERPINE], the AC50 in [9] was more than 30 µM; in assay [1], more than 10 µM; in assay [2], more than 10 µM; in assay [10] it was more than 30 µM; in assay [3] it was more than 30 µM; in [4], 28.5 µM. The AC50 in assay [5] was more than 10 µM; in assay [6] it was more than 10 µM; in [8] it was 26.5 µM.
As to `CNCCc1ccc(OC(=O)C(C)C)c(OC(=O)C(C)C)c1` [IBOPAMINE], the AC50 in [1], in [3], in assay [4], in [5], in assay [6] and in assay [7] was more than 30 µM each time. The compound further displayed an AC50 in [8] of more than 30 µM.
